How the values were obtained:
Experiment in all cases: relative viability (nuclei count vs DMSO), 5 days (fraction); higher = more cells survive
[1] = compound: C=CC(=O)N1CCC[C@@H](n2nc(-c3ccc(Oc4ccccc4)cc3)c3c(N)ncnc32)C1 [Ibrutinib] + C[C@]1(O)C[C@@H](c2nc(-c3ccc4ccc(-c5ccccc5)nc4c3)c3c(N)nccn32)C1 [Linsitinib] (partner 1 µM)
Procedure, shortened: (§1)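 Five library-drug doses in √10 steps were combined with a fixed anchor-drug dose, or a single drug was given alone, by pin tool to lung cancer cell lines in 1536-well plates the day after seeding. Nuclei were stained and counted after 5 days. Relative viability is the nuclei count in treated wells over that in vehicle wells, taken as the median of duplicate plates.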

[2] = compound: C=CC(=O)N1CCC[C@@H](n2nc(-c3ccc(Oc4ccccc4)cc3)c3c(N)ncnc32)C1 [Ibrutinib] + COc1cc2c(Oc3ccc(NC(=O)C4(C(=O)Nc5ccc(F)cc5)CC4)cc3F)ccnc2cc1OCCCN1CCOCC1 [Foretinib] (partner 0.25 µM)
Procedure, shortened: as §1

[3] = compound: C=CC(=O)Nc1cc(-n2c(=O)ccc3cnc4ccc(-c5ccc(NS(C)(=O)=O)cc5)cc4c32)ccc1C [BMX-IN-1] + CS(=O)(=O)N1CCN(Cc2cc3nc(-c4cccc5[nH]ncc45)nc(N4CCOCC4)c3s2)CC1 [Pictilisib] (partner 1 µM)
Procedure, shortened: as §1

[4] = compound: C=CCc1cccc(/C=N/NC(=O)CN2CCN(Cc3ccccc3)CC2)c1O [PAC-1] + Cc1cc(Nc2cc(N3CCN(C)CC3)nc(Sc3ccc(NC(=O)C4CC4)cc3)n2)n[nH]1 [Tozasertib] (partner 0.1 µM)
Procedure, shortened: as §1

Cell Line	relative viability ([1]; first compound 0.005 µM)	relative viability ([1]; first compound 0.01581 µM)	relative viability ([1]; first compound 0.05 µM)	relative viability ([1]; first compound 0.1581 µM)	relative viability ([1]; first compound 0.5 µM)	relative viability ([2]; first compound 0.005 µM)	relative viability ([2]; first compound 0.01581 µM)	relative viability ([2]; first compound 0.05 µM)	relative viability ([2]; first compound 0.5 µM)	relative viability ([3]; first compound 0.02 µM)	relative viability ([3]; first compound 0.2 µM)	relative viability ([3]; first compound 0.6325 µM)	relative viability ([3]; first compound 2 µM)	relative viability ([4]; first compound 0.02 µM)	relative viability ([4]; first compound 0.06325 µM)	relative viability ([4]; first compound 0.2 µM)	relative viability ([4]; first compound 2 µM)	relative viability ([2]; first compound 0.1581 µM)
A-427	0.986	1.09	1.15	1.1	1.12	1.01	0.944	1.04	1.02	0.796	0.83	0.948	0.78	0.176	0.209	0.231	0.2	
NCI-H1437	1.01	0.926	0.989	1.09	0.993	1.33	1.19	1.26	1.27	0.455	0.391	0.425	0.462	0.395	0.391	0.378	0.378	1.28
PC-3 [JPC-3]	0.917	0.93	0.956	0.955	0.619	1.05	0.936	0.891	0.547	0.812	0.839	0.756	0.788	0.883	0.859	0.842	0.857	1.09
201T	0.961	1.05	1.01	1.06	0.907	1.02	1	0.965	1.08	0.752	0.72	0.71	0.695	0.876	1	0.956	0.883	1.03
PC-14	1	0.949	0.976	0.902	0.462	1.1	0.907		0.985	0.952	0.85	0.774	0.851	0.572	0.635	0.63	0.626	1.02
RERF-LC-KJ	0.903	0.804	0.818	0.824	0.778	0.97	0.707	0.841	0.845	0.6	0.64	0.607	0.484	0.467	0.483	0.45	0.511	0.895
HCC-15	0.883	0.85	0.935	0.89	0.835	0.978	0.929	1.08	1.01	0.721	0.818	0.798	0.844	0.398	0.458	0.449	0.378	1.08
NCI-H1755	1.02	0.92	1.06	1.02	0.903	0.929	0.925	0.951	0.855	0.446	0.541	0.498	0.423	0.541	0.587	0.506	0.512	1.02
NCI-H441	0.64	0.615	0.585	0.518	0.495	0.898	1.11	1.1	0.895	0.461	0.618	0.491	0.606	0.754	0.597	0.505	0.606	1.08
HOP-62	0.761	0.771	0.979	1.17	1.07	1.19	1.11	1.17	1.3	0.639	0.761	0.929	0.688	0.346	0.395	0.349	0.355	1.21
ABC-1	0.822	0.736	0.795	0.879	0.644	1.27	0.961	1.28	0.897	0.802	0.75	0.847	0.394	0.144	0.186	0.197	0.195	1.09
UMC-11	0.903	0.987	1.17	1.14	0.938	1.04	1.03	1.04	1.02	1.07	0.922	0.892	0.912	0.204	0.202	0.212	0.187	0.993
BEN	0.766	0.885	0.853	0.851	0.883		0.724	0.418	0.672	0.643	0.741	0.513	0.596	0.621	0.541	0.511	0.466	0.444
NCI-H520	0.928	0.76	0.971	1.03	0.883	0.672		0.734	0.531	0.376	0.299	0.304	0.278	0.461	0.468	0.407	0.393	0.945
SK-LU-1	0.776	1.02	1.21	1.21	1.04	0.857	0.804	0.814	0.719	0.579	0.567	0.675	0.481	0.314	0.332	0.341	0.294	0.926
NCI-H2087	1.07	1.06		1.02	0.943	1.18	1.21	1.09	1.24	0.876	0.662	0.954	1.15	0.197	0.252	0.281	0.259	
COR-L 105	0.739	0.811	0.709	0.914	0.321	1	0.933	0.969	0.602	0.383	0.4	0.481	0.4	0.318	0.323	0.383	0.374	1.04
NCI-H1395	1.16	0.968	0.995	1.45	1.13	0.913	0.922	1.02	0.907	0.82	1.02	0.701	0.61	0.629	0.7	0.749	0.646	0.982
EKVX	0.893	0.944	1.12	1.05	0.613	0.835	0.762	0.802	0.232	0.522	0.439	0.442	0.404	0.426	0.393	0.339	0.365	0.617
NCI-H23	0.396	0.508	0.545	0.568	0.518	0.988	0.884	0.939	0.641	0.483	0.495	0.582	0.411	0.323	0.384	0.366	0.383	0.914
NCI-H3122		1.03	1.03	0.992	1.07	1.02	0.984	1.04	1.04	0.689	0.632	0.571	0.675	0.421	0.425	0.394	0.344	0.938

— the supplement of paper PMC10307832
